Laboratory results taken from patent US20210030867A1, “ADJUVANT COMPOSITION CONTAINING ALUMINUM AND VACCINE COMPOSITION CONTAINING THE SAME” (TERUMO KABUSHIKI KAISHA, priority 2015, published 2021).

B1: antigen alone: OVA protein (Ovalbumin, low endotoxin) administered alone as comparative sample (protein, UniProt P01012 2-386, looked up)
Ovalbumin: GSIGAASMEFCFDVFKELKVHHANENIFYCPIAIMSALAMVYLGAKDSTRTQINKVVRFDKLPGFGDSIEAQCGTSVNVHSSLRDILNQITKPNDVYSFSLASRLYAEERYPILPEYLQCVKELYRGGLEPINFQTAADQARELINSWVESQTNGIIRNVLQPSSVDSQTAMVLVNAIVFKGLWEKAFKDEDTQAMPFRVTEQESKPVQMMYQIGLFRVASMASEKMKILELPFASGTMSMLVLLPDEVSGLEQLESIINFEKLTEWTSSNVMEERKIKVYLPRMKMEEKYNLTSVLMAMGITDVFSSSANLSGISSAESLKISQAVHAAHAEINEAGREVVGSAEAGVDAASVSEEFRADHPFLFCIKHIATNAVLFFGRCVSP
modifications: low endotoxin

Columns and labels:
[1] = Release test (measurement of leakage; membrane-disruption function); conditions: for pH 5.0 Leakage (%) Lb5.0 Amphipathic substance alone / pH 7.4 Leakage (%) Lb7.4 Amphipathic substance alone: labelled amphipathic substance alone; for pH 5.0 Leakage (%) La5.0 pH-sensitive compound alone / pH 7.4 Leakage (%) La7.4 pH-sensitive compound alone: labelled pH-sensitive compound alone
Protocol: The term “membrane-disruption function” means a function to bring about release in the release test. The release test described herein is a test consisting of the steps of adding liposomes (dispersion) embracing an aqueous solution containing a quenching substance and a fluorescent substance and a dispersion of an evaluation sample to a properly pH-adjusted aqueous solution, incubating the resulting aqueous solution at 37° C. for 90 minutes or 30 minutes, and measuring the intensity of fluorescence of the incubated aqueous solution. This method makes it possible to measure the amount of the fluorescent substance which has been released from the liposomes, and to confirm the membrane-disruption function of the pH-sensitive carrier. Note that the release test will be described in more detail in the Examples to be described later.
The leakage was evaluated according to the method described in K. Kono et al., Bioconjugate Chem. 2008 19 1040-1048. The evaluation was performed using EYPC liposomes which contain Pyranine as a fluorescent substance and DPX as a quencher.
3,000 nmol of EYPC dissolved in chloroform was measured and placed in a 10-mL eggplant-shaped flask, and the EYPC was made into thin film by means of a rotary evaporator. To the flask was added 500 μL of a Pyranine solution (Pyranine: 35 mM, DPX: 50 mM, MES: 25 mM, pH 7.4), followed by dispersion using an ultrasonic irradiator (USC-J), and then the resulting dispersion was passed through a polycarbonate film having a pore diameter of 100 nm by use of an extruder, so as to make the particle diameter uniform. The resulting dispersion underwent substitution of the outer aqueous layer using MES Buffer and G100 column, to obtain a dispersion of EYPC liposomes embracing the fluorescent substance. The concentration of the phospholipid was determined using phospholipid C-test Wako, and it was adjusted with MES Buffer so that phospholipid became 1.0 mmol/L.
20 μL of the dispersion of EYPC liposomes adjusted in concentration and 20 μL of an evaluation sample dispersion were added to 2960 μL of pH-adjusted MES Buffer, and the resulting mixture was subjected to incubation at 37° C. for 90 or 30 minutes (Values resulting from incubation for 90 minutes are adopted in Examples, unless otherwise specified.). Fluorescence at Ex461 nm and Em512 nm was observed by use of a spectrophotometer FP-6500 to monitor the leakage.
Note that the leakage was calculated assuming that the value in the case of using the dispersion alone of EYPC liposomes is 0% and the value in the case of adding 30 μL of 10-fold diluted Triton-X100 is 100%. Specifically, the leakage was calculated according to the following formula. Note that in the following formula, L represents the intensity of fluorescence measured, L0 represents the intensity of fluorescence of only the dispersion of EYPC liposomes embracing the fluorescent substance, and L100 represents the intensity of fluorescence in the case of adding Triton-X100.
First, the influence on the effect of promoting the membrane-disruption function was examined. […] After incubating the evaluation samples overnight, part (20 μL) of each evaluation sample was put to a release test. The release test was conducted according to the above-described release test.

[2] = tested on: cell-mediated immunity (CTL); experiment: Induction of cell-mediated immunity (CTL) in immunized mice, IFNγ ELIspot method on spleen cells; assay type: in vivo, C57BL/6N mouse
Protocol: Administration was performed under anesthesia. In the case of subcutaneous administration, it is carried out by subcutaneous injection, 100 μL/head, at one position on the back. […] As for the pH-sensitive carrier, a fundamental dose concentration for the amphipathic substance was 100 nmol/head, that for the pH-sensitive compound was 10 to 640 nmol/head, and part thereof was administered in diluted conditions. As the antigen, OVA protein or OVA peptide was used, the dose being 80 μg/head. […] In the case of evaluating cell-mediated immunity, administration was performed once and assay was conducted seven days after the administration.
The mouse was euthanized on the seventh day after the last administration and had its spleen extracted. After addition of 3.0 mL of RPMI medium containing 10% serum, the spleen was treated by the BD Falcon cell strainer, to obtain a suspension of cells. The cells were subjected to hemolysis with RBC lysis buffer, followed by washing with RPMI medium containing 10% serum. The cells were dispersed into RPMI medium containing 10% serum, after which the number of cells was counted, and a dispersion of spleen cells was obtained.
The ELIspot method was carried out by using the Mouse IFNγ ELISPOT Set. One day before cell inoculation, the 96-well ELispot plate was allowed to adsorb the detection antibody attached to the kit, to make the plate. The thus made plate was washed with RPMI medium containing 10% serum, after which 200 μL of 10% serum-containing RPMI medium was added thereto, and the plate was left to stand at 37° C. for two hours for blocking. The plate was washed with 10% serum-containing RPMI medium. In the case where the antigen undergoes restimulation, 100 μL of 10% serum-containing RPMI medium containing 40 μg/mL of OVA peptide was added to the plate. […]
The candidate substances were all used in an amount of 10 μg per mouse, and OVA protein was used as the antigen in an amount of 80 μg per mouse. […] Induction of cell-mediated immunity was evaluated according to the ELispot method described hereinabove. […]

[3] = subcutaneous, once, assay after seven days, candidate substance/alum 10 μg, OVA protein 80 μg per mouse, carrier where used 100 nmol DLPC + 160 nmol deoxycholic acid, restimulation with OVA peptide

| Molecule | pH 5.0 Leakage (%) Lb5.0 Amphipathic substance alone ([1]; pH 5.0) | pH 7.4 Leakage (%) Lb7.4 Amphipathic substance alone [1] | other results |
| --- | --- | --- | --- |
| sorbitan tristearic acid ester [Span65] | 4.2% | 1.5% | – |
| polyoxyethylene sorbitan monooleic acid ester [Tween 80] | 1.6% | 0.6% | – |
| CCCCCCCCCCCC(=O)OC[C@H](COP(=O)([O-])OCC[N+](C)(C)C)OC(=O)CCCCCCCCCCC [DLPC, 1,2-dilauroyl-sn-glycero-3-phosphatidylcholine] | – | – | pH 5.0 Leakage (%) Lb5.0 Amphipathic substance (DLPC) alone ([1]; pH 5.0, DLPC alone): 1.9% |
| C[C@H](CCC(=O)O)[C@H]1CC[C@H]2[C@@H]3C[C@H](O)[C@@H]4C[C@H](O)CC[C@]4(C)[C@H]3CC[C@]12C [Hyodeoxycholic acid] | – | – | pH 5.0 Leakage (%) La5.0 pH-sensitive compound alone ([1]; pH 5.0): 2.8%; pH 7.4 Leakage (%) La7.4 pH-sensitive compound alone [1]: 0.6% |
| sorbitan monooleate [Span80] | 7.3% | 4.4% | – |
| CCCCCCCCCCCCCCCCCC(=O)OCC(CO)OC(=O)CCCCCCCCCCCCCCCCC (centres unmarked) [Glycerol distearate, glycerol distearate] | 4.0% | 0.3% | – |
| CCCCCCCC/C=C\CCCCCCCC(=O)OCC(O)CO (centres unmarked) [Glycerol monooleate, glycerol monooleate] | 6.0% | 4.1% | – |
| CCCCCCCCCC(=O)OC[C@H](COP(=O)([O-])OCC[N+](C)(C)C)OC(=O)CCCCCCCCC [DDPC, 1,2-didecanoyl-sn-glycero-3-phosphatidylcholine] | 10.1% | 8.4% | – |
| polyoxyethylene sorbitan monolauric acid ester [Tween 20] | 48.8% | 50.4% | – |
| polyoxyethylene sorbitan monopalmitic acid ester [Tween 40] | 11.5% | 8.3% | – |
| CC(CCC(=O)NCC(=O)O)C1CCC2C3CCC4CC(O)CCC4(C)C3CC(O)C12C (centres unmarked) [Glycodeoxycholic acid] | – | – | pH 5.0 Leakage (%) La5.0 pH-sensitive compound alone ([1]; pH 5.0): 5.9%; pH 7.4 Leakage (%) La7.4 pH-sensitive compound alone [1]: 1.6% |
| C[C@H](CCC(=O)O)[C@H]1CC[C@H]2[C@@H]3[C@H](O)C[C@@H]4C[C@H](O)CC[C@]4(C)[C@H]3CC[C@]12C [Chenodeoxycholic acid] | – | – | pH 5.0 Leakage (%) La5.0 pH-sensitive compound alone ([1]; pH 5.0): 3.1%; pH 7.4 Leakage (%) La7.4 pH-sensitive compound alone [1]: 1.1% |
| Polyoxyethylene 10 castor oil [Peg (10) castor oil] | 6.2% | 3.4% | – |
| sorbitan stearic acid ester [Span60] | 4.3% | 1.6% | – |
| sorbitan palimitic acid ester [Span40] | 1.6% | 0.6% | – |
| sorbitan trioleic acid ester [Span85] | 2.0% | 1.8% | – |
| CC(=O)Oc1c(C)c(C)c2c(c1C)CCC(C)(CCC[C@H](C)CCC[C@H](C)CCCC(C)C)O2 (mixture of isomers) [tocopherol acetate, DL-α-tocopherol acetate, reference compound] | – | – | induction of cell-mediated immunity (spot formation, ELIspot) [2, 3]: did not induce cell-mediated immunity |
| CCCCCCCCCCCC(=O)OCC(O)COC(=O)CCCCCCCCCCC [α,α′-dilaurin] | 0.8% | 1.0% | – |
| CC1(C)[C@@H](O[C@H]2O[C@H](C(=O)O)[C@@H](O)[C@H](O)[C@H]2O[C@@H]2O[C@H](C(=O)O)[C@@H](O)[C@H](O)[C@H]2O)CC[C@]2(C)[C@H]3C(=O)C=C4[C@@H]5C[C@@](C)(C(=O)O)CC[C@]5(C)CC[C@@]4(C)[C@]3(C)CC[C@@H]12 [Glycyrrhizinic acid] | 4.0% | 0.3% | pH 5.0 Leakage (%) La5.0 pH-sensitive compound alone ([1]; pH 5.0): 3.0%; pH 7.4 Leakage (%) La7.4 pH-sensitive compound alone [1]: 0.8% |
| polyoxyethylene sorbitan monostearic acid ester [Tween 60] | 6.7% | 3.8% | – |
| Cc1c(C)c2c(c(C)c1O)CCC(C)(CCCC(C)CCCC(C)CCCC(C)C)O2 (racemic) [Tocopherol, DL-α-tocopherol] | 1.2% | 1.7% | induction of cell-mediated immunity (spot formation, ELIspot) ([2]; mouse, in vivo, sc): did not induce cell-mediated immunity |
| B1 | – | – | induction of cell-mediated immunity (spot formation, ELIspot) [2, 3]: did not induce cell-mediated immunity |
